# Measured values taken from ChEMBL document CHEMBL1147033, “Novel selective androgen receptor modulators: SAR studies on 6-bisalkylamino-2-quinolinones” (Bioorg Med Chem Lett, 2007).
# Experiments:
# Androgen receptor [1] = molecular target: T1, Androgen receptor (Homo sapiens, UniProt P10275)
# T1 sequence (P10275 whole entry): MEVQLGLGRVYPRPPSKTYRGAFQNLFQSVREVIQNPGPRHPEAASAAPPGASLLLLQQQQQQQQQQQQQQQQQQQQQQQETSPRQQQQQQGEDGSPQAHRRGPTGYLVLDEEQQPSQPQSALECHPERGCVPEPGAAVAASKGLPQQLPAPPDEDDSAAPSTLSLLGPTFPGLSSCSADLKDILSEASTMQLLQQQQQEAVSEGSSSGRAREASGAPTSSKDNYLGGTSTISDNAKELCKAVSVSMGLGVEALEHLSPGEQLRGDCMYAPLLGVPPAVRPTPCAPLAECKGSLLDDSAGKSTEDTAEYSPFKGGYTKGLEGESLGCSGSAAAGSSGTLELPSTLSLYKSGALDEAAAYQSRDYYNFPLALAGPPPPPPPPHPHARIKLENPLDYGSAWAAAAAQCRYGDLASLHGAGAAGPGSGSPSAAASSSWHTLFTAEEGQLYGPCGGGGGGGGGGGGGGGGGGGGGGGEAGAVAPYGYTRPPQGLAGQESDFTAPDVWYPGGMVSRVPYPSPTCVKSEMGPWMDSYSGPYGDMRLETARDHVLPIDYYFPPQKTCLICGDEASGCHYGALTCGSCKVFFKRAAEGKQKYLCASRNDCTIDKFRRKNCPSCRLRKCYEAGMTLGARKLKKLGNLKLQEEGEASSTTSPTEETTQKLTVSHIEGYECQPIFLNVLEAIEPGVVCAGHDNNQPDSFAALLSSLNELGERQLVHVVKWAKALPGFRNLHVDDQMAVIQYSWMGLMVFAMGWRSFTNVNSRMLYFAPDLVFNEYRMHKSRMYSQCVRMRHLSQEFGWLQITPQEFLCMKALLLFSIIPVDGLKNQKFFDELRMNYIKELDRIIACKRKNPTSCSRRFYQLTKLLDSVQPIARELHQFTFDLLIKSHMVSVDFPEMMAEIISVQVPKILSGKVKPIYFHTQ
# Description: Binding affinity to human AR
# Androgen receptor [2] = molecular target: T1, Androgen receptor; remark: listed apart in the source
# Description: Antagonist activity at human AR
# Androgen receptor [3] = molecular target: T1, Androgen receptor; remark: listed apart in the source
# Description: Agonist activity at human AR
smiles,measurement,setting,value
O=c1cc(C(F)(F)F)c2cc(N(Cc3ccccc3)CC(F)(F)F)ccc2[nH]1,Ki,Androgen receptor [1],79 nM
same,IC50,Androgen receptor [2],> 10000 nM
same,EC50,Androgen receptor [3],27 nM
